Values quoted from earlier work as cited in US12427127B2 (priority 2018, dated 2025).

O=NN(CCCl)C(=O)NCCCl [Carmustine, 1,3-bis (2-chloroethyl)-1-nitrosourea]
Solubility in alcohol and lipids: highly soluble | Solubility in water: poorly soluble
